Source: patent US10487088B2, “Tricyclic compound serving as immunomodulator” (Chia Tai Tianqing Pharmaceutical Group Co., Ltd., priority 2016, dated 2019)
pIC50: −log10 of the molar value.

Biological target: T1, recombinant human IDO1 enzyme (Homo sapiens, UniProt P14902)
T1 construct: purchased NTRC NTRC-hlDO-10K
Test: In vitro hIDO1 enzyme activity test (NFK Green fluorescence)
Format: biochemical
Details: recombinant human IDO1, L-tryptophan substrate, pH 6.5
Experimental: The change of NFK production was detected by using the NFK Green™ fluorescent molecule, which is the metabolite of the IDO1 enzyme, and the IC50 value of the compound was used as an index, to evaluate the inhibitory effect of the compound on the recombinant human IDO1 enzyme.
IDO1 Enzyme Activity Assay Kit, NTRC # NTRC-hlDO-10K;
The compound was diluted to 1 mM in DMSO, and then diluted 3-fold in duplicate wells, with 10 gradients. 48 μL of 50 mM phosphate buffer (pH 6.5) was transferred to the compound plate via Bravo automated liquid handling platform. 2 μL of the diluted solution of the compound in DMSO was then added and mixed, followed by transferring 10 μL therein to an enzyme reaction plate.
The IDO1 enzyme was diluted to 20 nM in the reaction buffer (50 mM phosphate buffer pH 6.5, 0.1% Tween-20, 2% glycerol, 20 mM ascorbic acid, 20 μg/mL catalase and 20 μM methylene blue), and 20 μL of the solution was transferred to an enzyme reaction plate and incubated at 23° C. for 30 min. The reaction was started by adding 10 μL of 400 μM L-type tryptophan substrate and incubated at 23° C. for 90 min. 10 μL of NFK Green™ fluorescent dye was added, and the plate was sealed with the sealing film, incubated at 37° C. for 4 h, and then read on Envision Multimode Plate Reader (Ex 400 nm/Em 510 nm).
The control wells with the IDO1 enzyme but no compound was set as 0% inhibition, and the control wells without the IDO1 enzyme was set as 100% inhibition, and the IC50 value of the compound was calculated by analyzing the data with XLFit 5.

T1 sequence (P14902 whole entry): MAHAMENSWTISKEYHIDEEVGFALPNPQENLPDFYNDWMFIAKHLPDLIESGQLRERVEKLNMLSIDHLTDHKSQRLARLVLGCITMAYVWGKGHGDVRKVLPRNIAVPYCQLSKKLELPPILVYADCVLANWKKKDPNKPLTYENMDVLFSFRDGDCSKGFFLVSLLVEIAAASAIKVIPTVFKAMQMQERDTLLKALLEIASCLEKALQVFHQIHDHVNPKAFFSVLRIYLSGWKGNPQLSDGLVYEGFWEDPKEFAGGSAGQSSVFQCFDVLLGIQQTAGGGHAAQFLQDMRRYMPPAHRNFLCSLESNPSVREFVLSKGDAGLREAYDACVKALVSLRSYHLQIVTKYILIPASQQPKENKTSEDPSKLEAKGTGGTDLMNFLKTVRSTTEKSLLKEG

Row | Structure (SMILES) | pIC50
1 | OC(CC1c2nn(C(F)(F)F)cc2-c2cncn21)C1CCCCC1 (single isomer, unassigned) [Example 1, 1-cyclohexyl-2-(2-(trifluoromethyl)-2,8-dihydroimidazo[1′,5′:1,5]pyrrolo[3,4-c]pyrazol-8-yl)ethanol] | < 5.00
2 | OC(CC1c2nn(C(F)(F)F)cc2-c2cncn21)C1CCCCC1 (single isomer, unassigned) [Example 2, 1-cyclohexyl-2-(2-(trifluoromethyl)-2,8-dihydroimidazo[1′,5′:1,5]pyrrolo[3,4-c]pyrazol-8-yl)ethanol] | < 5.00
3 | OC(CC1c2nn(C(F)(F)F)cc2-c2cncn21)C1CCCCC1 (single isomer, unassigned) [Example 3, 1-cyclohexyl-2-(2-(trifluoromethyl)-2,8-dihydroimidazo[1′,5′:1,5]pyrrolo[3,4-c]pyrazol-8-yl)ethanol] | < 5.00
4 | OC(CC1c2sccc2-c2cncn21)C1CCCCC1 (single isomer, unassigned) [Example 5, cyclohexyl-2-(8H-thieno[3′,2′:3,4]pyrrolo[1,2-c]imidazol-8-yl)ethanol] | 5.30
5 | OC(CC1c2sccc2-c2cncn21)C1CCCCC1 (single isomer, unassigned) [Example 6, cyclohexyl-2-(8H-thieno[3′,2′:3,4]pyrrolo[1,2-c]imidazol-8-yl)ethanol] | 5.01
6 | OC(CC1c2sccc2-c2cncn21)C1CCCCC1 (single isomer, unassigned) [Example 8, cyclohexyl-2-(8H-thieno[3′,2′:3,4]pyrrolo[1,2-c]imidazol-8-yl)ethanol] | 7.19
7 | c1cc2c(s1)C(C1CCCCC1)n1cncc1-2 (single isomer, unassigned) [Example 13, 8-cyclohexyl-8H-thieno[3,4]pyrrolo[1,5-a]imidazole] | < 5.00
8 | c1cc2c(s1)C(CC1CCCCC1)n1cncc1-2 (single isomer, unassigned) [Example 15, 8-(cyclohexylmethyl)-8H-thieno[3,4]pyrrolo[1,5-a]imidazole] | 5.28
9 | c1cc2c(s1)C(COC1CCCCC1)n1cncc1-2 (single isomer, unassigned) [Example 17, 8-((cyclohexyloxy)methyl)-8H-thieno[3′,2′:3,4]pyrrolo[1,2-c]imidazole] | 6.47
10 | c1cc2c(s1)C(COC1CCCCC1)n1cncc1-2 (single isomer, unassigned) [Example 18, 8-((cyclohexyloxy)methyl)-8H-thieno[3′,2′:3,4]pyrrolo[1,2-c]imidazole] | < 5.00

Continued, values first:

Row | pIC50 | Structure (SMILES)
11 | < 5.00 | Fc1cc2c(s1)C(CCC1CCCCC1)n1cncc1-2 (single isomer, unassigned) [Example 19, 8-(2-cyclohexylethyl)-2-fluoro-8H-thieno[3′,2′:3,4]pyrrolo[1,2-c]imidazole]
12 | 6.23 | Fc1cc2c(s1)C(CCC1CCCCC1)n1cncc1-2 (single isomer, unassigned) [Example 20, 8-(2-cyclohexylethyl)-2-fluoro-8H-thieno[3′,2′:3,4]pyrrolo[1,2-c]imidazole]
13 | 5.04 | FC1(F)CCC(CCC2c3sccc3-c3cncn32)CC1 (single isomer, unassigned) [Example 21, 8-(2-(4,4-difluorocyclohexyl)ethyl)-8H-thieno[3′,2′:3,4]pyrrolo[1,2-c]imidazole]
14 | < 5.00 | O=C1CC[C@H]2C[C@@H]([C@@H](O)CC3c4sccc4-c4cncn43)CCN12 (single isomer, unassigned) [Example 26]
15 | 6.06 | O=C1CC[C@H]2C[C@@H]([C@@H](O)CC3c4sccc4-c4cncn43)CCN12 (single isomer, unassigned) [Example 27]
16 | < 5.00 | c1cc2c(s1)C(C1CCCOC1)n1cncc1-2 (single isomer, unassigned) [Example 33, 8-(tetrahydro-2H-pyran-3-yl)-8H-thieno[3′,2′:3,4]pyrrolo[1,2-c]imidazole]
17 | < 5.00 | c1cc2c(s1)C(C1CCCOC1)n1cncc1-2 (single isomer, unassigned) [Example 34, 8-(tetrahydro-2H-pyran-3-yl)-8H-thieno[3′,2′:3,4]pyrrolo[1,2-c]imidazole]
